{"source": "patent US20080317769A1", "about": "“Vaccine Composition Comprising Alpha-Galactosylceramide as an Adjuvant For Intranasal Administration” (priority 2005, published 2008)", "key": {"[1]": {"test_system": "P815 tumor cells infected with live PR8 virus", "assay": "51Cr release assay for CTL activity against PR8-infected P815 target cells", "assay_type": "in vivo", "details": "Balb/c mice; inactivated PR8 with or without αGalCer intranasal; splenocytes, 51Cr-labeled PR8-infected P815 targets, 6 hours", "procedure": "(§1) To examine the role of αGalCer as an adjuvant of a killed virus, influenza virus A/PR/8/34 (PR8), which was inactivated with formalin, was used as an antigen to examine the anti-virus immune response. Balb/c mice were immunized with indicated amounts (1 μg, 10 μg) of inactivated PR8 alone or together with αGalCer by the intranasal administration twice at two-week intervals. Two weeks after the final immunization, the mice were sacrificed and following experiments were performed.\nSingle cells, separated from the spleen of the sacrificed mice, were cultured with stimulator cells for 5 days. To obtain stimulator cells, single cells were taken from the spleen of a naïve Balb/c mouse, which was irradiated with γ-ray, resulting in the inactivation of the cells. Then, the inactivated cells were infected with a live PR8 virus. After culturing splenocytes with stimulator cell for five days, effector cells were three-fold diluted serially, followed by further culture with ^51Cr-labeled target cells for 6 hours. Then, the amounts of ^51Cr […] in the culture supernatant were measured. The target cells were prepared by infecting P815 tumor cells (purchased from ATCC) with live PR8 virus and labeled with ^51Cr."}, "[2]": {"test_system": "OT1 cells (OVA specific CD8+ T cells)", "assay": "Intracellular IL-2 and IFN-γ of OT1 cells after OVA257-264 peptide stimulation", "assay_type": "in vivo, mouse", "details": "OVA + 2.0 μg αGalCer intranasal vs OVA alone; 5 μM OVA257-264 peptide for 6 hours", "procedure": "To confirm whether the activated T-cells were differentiated into fully functional CTL, 2×10^6/ml of cells were further stimulated with 5 μM of OVA257-264 peptide for 6 hours, by the same manner as described in Example 4, and then intracellular IL-2 and IFN-γ levels were measured by using APC-conjugated IL-2 (Clone JES6-5H4, Biolegend Inc., USA) and APC-conjugated IFN-γ mAb (Clone XMG1.2 Biolegend Inc., USA)."}, "[3]": {"details": "dose escalation study, 50-4800 μg/m^2; cited from earlier work"}, "[4]": {"test_system": "β-galactosidase-specific antibody response", "assay": "β-galactosidase-specific antibody response after intranasal Ad-LacZ with αGalCer", "assay_type": "in vivo", "details": "Balb/c mice; 10^6 pfu Ad-LacZ + 0.125 μg αGalCer intranasal, twice at two-week intervals; vs vehicle alone or Ad-LacZ alone", "procedure": "Balb/c mice were immunized with 10^6 pfu of replication-deficient live adenovirus harboring beta-galactosidase gene (Ad-LacZ) (Viromed, Korea) alone or together with 0.125 μg of αGalCer by the intranasal administration, two times at two-week intervals. One week after the final immunization, the nasal wash, the lung wash and serum were separated, by the same manner as described in Example 1, to measure β-galactosidase-specific antibody response. In addition, to measure CTL activity, spleen cells were stimulated by 2.5 μg/mL of β-galactosidase for 5 days and IFN-γ-producing CD8+ T cells were examined by intracellular cytokine staining according to the procedure as described in Example <4-2>."}, "[5]": {"details": "rodents and apes; cited from earlier work"}, "[6]": {"test_system": "OVA257-264 pulsed CFSE^high spleen cells", "assay": "In vivo CTL assay: specific lysis of OVA257-264 pulsed CFSE-high cells by FACS, C57BL/6 mice", "details": "all αGalCer dose groups + OVA intranasal, vs vehicle alone or OVA alone, dose-dependent", "procedure": "Spleen cells were separated from naive C57BL/6 mice, which were pulsed with 1 μM of OVA257-264 at 37° C. for 90 minutes. The pulsed cells were labeled with 20 μM of CFSE (Molecular Probes, USA) at 37° C. for 15 minutes, resulting in OVA257-264 pulsed CFSE^high cells. In the meantime, the unpulsed cells were labeled with 2 μM of CFSE (Molecular Probes, USA) at 37° C. for 15 minutes, resulting in the OVA257-264 unpulsed CFSE^low cells. The equal numbers of peptide-pulsed CFSE^high cells and unpulsed CFSE^low cells were mixed, which were intravenously injected to mice at the number of 2×10^7 cells one week after the final immunization. 24 hours later, specific lysis of peptide-pulsed CFSE^high cell was investigated by using FACS in spleen, mesenteric lymph node (MLN) and cervical lymph node (CLN)."}, "[7]": {"test_system": "inactivated influenza virus A/PR/8/34 (PR8)", "assay": "Humoral immune response after intranasal formalin-inactivated PR8 virus with αGalCer", "assay_type": "in vivo", "details": "Balb/c mice", "procedure": "as §1\nThe nasal wash, the lung wash and serum were separated from the sacrificed mice and the antibody productions were observed therein by the same manner as described in Example 1."}, "[8]": {"test_system": "OT1 cells (OVA specific CD8+ T cells)", "assay": "CD25 surface expression of adoptively transferred CFSE-labeled OT1 cells in CLN (FACS)", "assay_type": "in vivo, mouse", "details": "100 μg OVA + 2.0 μg αGalCer intranasal vs OVA alone; 48 hours later", "procedure": "To investigate the effect of αGalCer on the activation of T cells, the surface expression of CD25 in CFSE-labeled OT1 cells (OVA specific CD8+ T cells), which were adoptively transferred into syngenic mice, was measured. OT1 cells were separated from OT1 mouse by using CD8α (Ly-2) magnetic bead (Mitenyl Biotech), which were labeled with 10 μM of CFSE at 37° C. for 15 minutes and then transferred intravenously into a syngenic mouse. One day after the adoptive transfer, the intranasal administration of 100 μg of OVA alone or together with 2.0 μg of αGalCer was performed thereto. 48 hours later, the expression of CD25 in CLN was investigated with FACS."}, "[9]": {"test_system": "IFN-γ-producing CD8+ T cells", "assay": "IFN-γ-producing CD8+ T cells by intracellular cytokine staining, Balb/c mice, OVA", "assay_type": "in vivo", "details": "splenocytes cultured 4 days with 500 μg/ml OVA, with the increase of αGalCer concentration", "procedure": "OVA dose not include an epitope peptide binding to a MHC class I molecule in Balb/c mouse. So, to investigate cytotoxic activity induced by αGalCer adjuvant in the Balb/c mouse, the numbers of IFN-γ-producing CD8+ T cells were measured (FIG. 11). Particularly, the cells (2×10^6 cells/ml) were cultured for 4 days with 500 μg/ml of OVA, to which 1 μl/ml of GolgiPug™ (BD Pharmigen, USA) was added 6 hours before termination of the culture. Then, staining was performed by using FITC-conjugated CD3 mAb (Clone 145-2C11, Biolegend Inc, USA), PE-conjugated CD8 mAb (Clone 53-6.7, Biolegend Inc, USA) and APC-conjugated IFN-γ mAb (Clone XMG1.2, Biolegend Inc, USA). Intracellular staining was performed with BD Cytofix/Cytoperm Plus™ (BD Pharmigen, USA) according to the manufacturer's instruction, and the stained cells were analyzed with FACSCalibur (BD Bioscience, USA) and CellQuest software (BD Bioscience, USA)."}}, "note": "Entries after “also recorded” stand apart in the source; their conditions may differ.", "data": [{"smiles": "CCCCCCCCCCCCCCCCCCCCCCCCCC(=O)N[C@@H](CO[C@H]1O[C@H](CO)[C@H](O)[C@H](O)[C@H]1O)[C@H](O)[C@H](O)CCCCCCCCCCCCCC", "note": "[αGalCer, alpha-galactosylceramide]", "values": [{"measurement": "target cell-specific lytic activity", "setting": "[1]", "value": "observed only in mice concurrently treated with αGalCer; also recorded: strong lytic activity"}, {"measurement": "levels of OT1 cells secreting IL-2 and IFN-γ", "setting": "[2]", "value": "higher"}, {"measurement": "dose-limiting toxicity", "setting": "[3]", "value": "does not cause dose-limiting toxicity"}, {"measurement": "β-galactosidase-specific IgG antibody in serum", "setting": "[4]", "value": "higher levels"}, {"measurement": "β-galactosidase-specific S-IgA antibody in the nasal wash and the lung wash", "setting": "[4]", "value": "higher levels"}, {"measurement": "toxicity", "setting": "[5]", "value": "seems not to induce toxicity"}, {"measurement": "CTL cytotoxicity (specific lysis) in spleen, MLN and CLN", "setting": "[6]", "value": "dose-dependent lytic activity"}, {"measurement": "CTL cytotoxicity (specific lysis) in spleen, MLN and CLN", "setting": "[6]; listed as α-GalCer", "value": "higher cytotoxicity"}, {"measurement": "antigen-specific systemic IgG in serum", "setting": "[7]; inactivated PR8 (1 μg, 10 μg) + αGalCer intranasal twice at two-week intervals, vs inactivated PR8 alone", "value": "significantly higher; also recorded: increased"}, {"measurement": "mucosal S-IgA in the nasal wash and the lung wash", "setting": "[7]; inactivated PR8 + αGalCer intranasal twice at two-week intervals", "value": "remarkably increased"}, {"measurement": "level of OT1 cells expressing CD25 in CLN", "setting": "[8]", "value": "higher"}, {"measurement": "numbers of IFN-γ-producing CD8+ T cells, relation to αGalCer concentration", "setting": "[9]", "value": "decreased"}]}]}
